# Experimental data as given in patent US12616753B2, “HSP70 inhibitors and methods of using same” (THE WISTAR INSTITUTE, priority 2020, dated 2026).
# Experiments:
# Assay type in all cases: cell-based
# CCD 841 CoN cells = test: Trypan Blue exclusion viability assay, normal colon epithelial cells; settings: 10 μM, 48 hours
# mutant p53 and MRPS14 = test: Western blot in mouse CRC cell lines; settings: 10 μM, 24 or 48 hours
# Method: FIGS. 5A-5F show AP-4-139B is efficacious against CRC in an immunocompetent model, and causes immune cell recruitment. FIGS. 5A-5B: Mouse CRC cell lines, MC38 (FIG. 5A) and CT26 (FIG. 5B), were plated at a density of 1,000 cells per well in 96-well plates. The next day, cells were treated with the indicated inhibitors for 72 hours. Cells were then subjected to the Alamar Blue cell viability assays. Shown are representative IC50 values of an average of six technical replicates and two biological replicates. FIG. 5C: Mouse CRC cell lines MC38 and CT26 were treated with 10 μM AP-4-139B for 24 or 48 hours and immunoblotted for HSP70, p53, AKT, Cleaved Lamin A (CLA), Cleaved Caspase 3, MRPS14, and GAPDH (loading control). The doublet detected for HSP70 is seen in other murine cell lines, and may represent a degradation product or post-translational modification. FIG. 5D: 1×10^6 MC38 cells were injected subcutaneously into the right flank of 6-8 week old male C57Bl/6 mice. Once tumors reached an approximate volume of 50 mm^3, mice were separated randomly into two groups: vehicle vs. AP-4-139B. Mice were treated with 10 mg/kg AP-4-139B every 48 hours. All mice were euthanized 20 days after the start of treatment. Tumor volumes were recorded using digital calipers and using the formula v=length×width^2×0.52. *** p<0.001. n=15 mice per group.
# MC38 and HT-29 cells = test: Extracellular HMGB1 release; settings: 8 or 24 hours
# Method: FIG. 6A: 1×10^6 MC38 cells were injected subcutaneously into the right flank of 6-8-week-old male C57Bl/6 mice. Once tumors reached an approximate volume of 100 mm^3, mice were treated with AP-4-139B (10 mg/kg) every 48 hours. 20 days after the start of treatment, tumors were excised, weighed, minced and digested. Tumor-infiltrating and splenic conventional CD4 (cCD4) (Live CD45^+ DUMP^− CD3^+CD4^+Foxp3^−), Tregs (Live CD45^+ DUMP^− CD3^+CD4^+Foxp3^+), CD8 (Live CD45^+ DUMP^− CD3^+CD8^+) T-cells, and Dendritic Cells (Live CD45^+ DUMP^− CD3^−CD11c^+MHCII^+) numbers were assessed by flow cytometry. * p<0.05, n.s. not significant. n=8 mice per group. FIG. 6B: MC38 and HT-29 cells were treated with the indicated concentrations of AP-4-139B for either 8 or 24 hours; media was collected and subjected to WB for HMGB1. Data shown are representative of three technical replicates. FIG. 6C: MC38 and HT-29 cells were treated with the indicated concentrations of AP-4-139B for three hours and then assayed for extracellular ATP release. […]
# The XF Cell Mito Stress Test was performed. […] For extracellular ATP release, ATP was measured using the CellTiter-Glo Kit (Promega catalog #G7570). […] 10 μl of CellTiter-Glo Reaction Mix was then mixed with 10 μl of culture media; the luminescence signal was detected using a luminometer.
structure (smiles),measurement,setting,value
"c1ccc(-c2cn3nc(CCCCCC[P+](c4ccccc4)(c4ccccc4)c4ccccc4)sc3n2)cc1 [AP-4-139B, Triphenyl(6-(6-phenylimidazo[2,1-b][1,3,4]thiadiazol-2-yl)hexyl)phosphonium bromide]",toxicity to normal colon epithelial cells,CCD 841 CoN cells,far less sensitive
same,levels of mutant p53 and MRPS14 in MC38 cells,mutant p53 and MRPS14,decreased levels
same,HMGB1 secretion,MC38 and HT-29 cells,reproducibly induced HMGB1 secretion
